Source: patent publication US8653046B2, “Controlling transgene expression across the skin” (ETH Zurich, priority 2009, dated 2014)

Target: TtgA1 (TtgR-VP16) (Pseudomonas putida, UniProt Q9AIU0)
Experiment: PEACE: SEAP expression after transient co-transfection of pMG10 (PTtgR1-SEAP-pA) and pMG11 (PSV40-TtgA1-pA)
Format: cell-based
Parameters: key to SEAP Production: ^a): Undetectable
Conditions: 48 h
Description: Living in the plant rhizosphere, Pseudomonas putida DOT-T1E has evolved resistance to a variety of plant-derived antimicrobials, which is triggered by phloretin-induced release of TtgR protein from the operator (OTtgR) of its target promoter and subsequent induction of a broadly specific TtgABC efflux pump (Teran W. et al., loc. cit.).
Three different transactivators are designed, harboring either the VP16 (TtgA1; pMG11, TtgR-VP16) (Triezenberg S. J. et al., loc. cit.), the p65 (TtgA2; pMG18, TtgR-p65) (Urlinger S., et al., 2000, Gene 247(1-2):103-110) or the human E2F4 (TtgA3; pMG19, TtgR-E2F4) (Akagi K., Kanai M., Saya H., Kozu T., Berns A., 2001, Nucleic Acids Res 29(4):e23) transactivation domains. pMG11, pMG18 or pMG19 are co-transfected with pMG10 (PTtgR1-SEAP-pA) into CHO-K1, HEK-293 as well as primary human fibroblasts and keratinocytes, and SEAP expression is profiled after 48 h of cultivation in the presence or absence of 50 μM phloretin.
CHO-K1 are transiently (co-)transfected with either pMG10 (PTtgR1-SEAP-pA) and pMG11 (PSV40-TtgA1-pA), to score regulation performance, or with pSEAP2-Control (PSV40-SEAP-pA), to assess compound-related cytotoxicity, and then cultivated for 48 h in medium containing different concentrations (0, 25, 50 μM) of specific flavonoid type compounds (berberine, butylparaben, genistein, luteolin, β-naphthol, naringenin, phloretin, phloridzin or quercetin) before SEAP production is profiled (FIG. 5A).
Wild-type Chinese hamster ovary cells (CHO-K1, ATCC: CCL-61) and their derivatives are cultivated in standard medium: ChoMaster® HTS (Cell Culture Technologies, Gravesano, Switzerland) supplemented with 5% (v/v) fetal calf serum (FCS, PAN Biotech GmbH, Aidenbach, Germany, Cat. No. 3302, Lot No. P251110) and 1% (v/v) penicillin/streptomycin solution (Sigma, St Louis, Mo., USA, Cat. No. P4458). Human embryonic kidney cells (HEK-293, Mitta B., et al., 2002, Nucleic Acids Res 30(21):e113), African green monkey kidney cells (COS-7, ATCC: CRL-1651), baby hamster kidney cells (BHK-21, ATCC: CCL10), human fibrosarcoma cells (HT-1080, ATCC: CCL-121), the human keratinocyte cell line HaCaT (Boukamp P., et al., 1988, J Cell Biol 106(3):761-771) and mouse fibroblasts (NIH/3T3, ATCC: CRL-1658) are cultured in Dulbecco's modified Eagle's medium (DMEM; Invitrogen, Cat. No. 52100-39) supplemented with 10% FCS (v/v) and 1% (v/v) penicillin/streptomycin solution. Primary human foreskin fibroblasts are cultivated in DMEM supplemented with 20% FCS (v/v) and 1% (v/v) penicillin/streptomycin solution and primary human foreskin keratinocytes are cultured in chemically defined serum-free keratinocyte medium (Invitrogen, Cat. No. 10744019). All cell types are cultivated at 37° C. in a 5% CO2-containing humidified atmosphere.

Sequence of TtgA1 (TtgR-VP16) (Q9AIU0 whole entry, added parts left off): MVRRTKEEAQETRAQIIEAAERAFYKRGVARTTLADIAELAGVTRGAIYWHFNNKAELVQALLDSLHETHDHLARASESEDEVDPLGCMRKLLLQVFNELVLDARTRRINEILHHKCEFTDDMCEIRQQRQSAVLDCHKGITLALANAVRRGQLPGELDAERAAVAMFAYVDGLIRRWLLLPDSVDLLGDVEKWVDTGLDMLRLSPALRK

`O=C(CCc1ccc(O)cc1)c1c(O)cc(O)cc1O` [phloretin, 3-[4-hydroxyphenyl]-1-[2,4,6-trihydroxyphenyl]-1-propanone] was tested. Which SEAP Production (BHK-21, 50 μM Phloretin) did it give?
The SEAP Production was 1.5 ± 0.2 U/L.

What about the “PEACE regulation performance (SEAP production)” value (CHO-K1, 0, 25, 50 μM) of the same molecule?
Its value is “full transgene repression”.

What about the “SEAP expression dose response” value (CHO-K1, phloretin 0-70 μM) of the same molecule?
Its value is “dose-dependent reduction of SEAP expression up to complete repression”.

And the “SEAP Production” value (CHO-K1, phloretin 50 μM)?
The value was 0.2 ± 0.016 U/L.

What about the SEAP Production (COS-7, 50 μM Phloretin) of the same molecule?
The SEAP Production was “*”.

And the SEAP Production (HEK-293, 50 μM Phloretin)?
The SEAP Production was 0.2 ± 0.04 U/L.

What about the “SEAP Production” value (HEK-293, phloretin 50 μM) of the same molecule?
The value was 0.2 ± 0.04 U/L.

And the SEAP Production (HT-1080, 50 μM Phloretin)?
Its SEAP Production is “*”.

What about the SEAP Production (HaCaT, 50 μM Phloretin) of the same molecule?
The SEAP Production was “*”.

And the SEAP Production (NIH/3T3, 50 μM Phloretin)?
Its SEAP Production is “*”.

And the SEAP Production (Primary human fibroblasts, 50 μM Phloretin)?
Its SEAP Production is “*”.

What about the SEAP Production (Primary human keratinocytes, 50 μM Phloretin) of the same molecule?
The SEAP Production was “*”.
